# Test results published in patent US5521160A, “Sulfuric acid esters of sugar alcohols” (Hoffmann-La Roche Inc., priority 1994, dated 1996).
# pIC50: −log10 of the molar value. Structures can show the parent of a compound that is named as a salt. Where two headings read alike, the source gives them in different places.
# Experiments:
# rat smooth muscle cells = assay: Antiproliferative activity (growth inhibition of rat smooth muscle cells, relative to heparin); assay type: cell-based; details: 100 μg/ml, 48 hours, relative to heparin 100 μg/ml in same experiment
# Description: The antiproliferative activity of a substance is expressed as the ri value which is a comparative value to the corresponding activity of heparin and which was determined in cell cultures as follows: rat smooth muscle cells were applied to cell culture plates in a density of 8×10^3 cells/well (medium: DMEM with 10% FCS. Cultivation at 37° C. and 5% CO2). After 4 hours the number of adhered cells was determined and the compounds to be tested (100 μg/ml, dissolved in H2 O) were added. The controls were a) cells to which test compound was not added and b) heparin (100 μg/ml). Subsequently, the cells were incubated for 48 hours and thereafter the cell count was determined once more.
# The inhibition i of the cell growth, i.e. the percent reduction in the growth rate of the cells compared to the control, was calculated from these values: [formula] the growth rate μ being calculated as [formula] in which Z is the number of cells.
# Finally, ri --the relative inhibitory activity--which expresses the activity of a substance (at 100 μg/ml) in comparison to the activity of heparin in the same concentration in the same experiment, was calculated: [formula]
# Factor Xa = target: T1, Factor Xa (Bos taurus, UniProt P00743); assay: Inhibition of Factor Xa in the chromogenic substrate assay (blood coagulation inhibition); assay type: biochemical; details: chromogenic substrate S-2222, antithrombin III, plasma; read-out: Anticoagulative Activity IC50 Factor Xa
# T1 sequence (P00743 41-180 limits assumed): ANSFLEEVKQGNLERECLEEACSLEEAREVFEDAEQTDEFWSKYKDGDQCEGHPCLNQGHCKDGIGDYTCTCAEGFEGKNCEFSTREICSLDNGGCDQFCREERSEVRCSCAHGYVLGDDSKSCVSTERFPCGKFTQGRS
# Description: (§1) The blood coagulation-inhibiting activity was determined as follows:
# Inhibition of Thrombin or Factor Xa in the Chromogenic Substrate Assay (Teien. et al., Thrombosis Research 10, 399-410 (1977)): The determination was effected in a Cobas-Bio centrifugal automatic spectrophotometer. The buffer solution used consisted of 50 mM Tris buffer, 180 mM NaCl, 7.5 mM EDTA Na2, 1% PEG 6000 and 0.02% Tween 80, pH 8.4. The test solution consisted of 50 μl of buffer, 30 μl of antithrombin III (1 U/ml, Kabi Diagnostica) and 20 μl of plasma which contained various concentrations of test compounds.
# The inhibition of Factor Xa was measured in the same manner using a solution of Factor Xa (2.8 nkat/ml) and 2 mM S-2222 (Bz-CO-Ile-Glu-Arg-NH.pNA, Kabi Diagnostica) in water in place of thrombin or S-2238.
# thrombin = target: T2, thrombin (Homo sapiens, UniProt P00734); assay: biochemical; assay type: biochemical; details: read-out: Anticoagulative Activity IC50 Thrombin
# T2 construct: purchased Roche, Basle (Thrombin Reagent)
# Description: as §1
# Inhibition of Thrombin or Factor Xa in the Chromogenic Substrate Assay (Teien. et al., Thrombosis Research 10, 399-410 (1977)): The determination was effected in a Cobas-Bio centrifugal automatic spectrophotometer. The buffer solution used consisted of 50 mM Tris buffer, 180 mM NaCl, 7.5 mM EDTA Na2, 1% PEG 6000 and 0.02% Tween 80, pH 8.4. The test solution consisted of 50 μl of buffer, 30 μl of antithrombin III (1 U/ml, Kabi Diagnostica) and 20 μl of plasma which contained various concentrations of test compounds. 30 μl of sample solution and 20 μl of water with 180 μl of thrombin (1 U/ml, Thrombin Reagent Roche Basle) were added to the test cuvette in the automatic analyzer. After incubation at 37° C. for 240 seconds, 60 μl of S-2238 (H-D-Phe-Pip-Arg-NH.pNA, Kabi Diagnostica, Mondal, Sweden, 0.75 mM in water) and 20 μl of water were added. The liberation of pNA (p-nitroaniline) was followed during 60 seconds at 405 nm in 10 second intervals in comparison to water as the blank.
# [1] = chromogenic substrate S-2238, antithrombin III, plasma, pH 8.4, 37° C.
Structure (SMILES),pIC50 (Factor Xa),pIC50 (thrombin; pH 8.4),pIC50 (thrombin; [1]),Antiproliferative Activity ri (relative inhibitory activity compared with heparin) (rat smooth muscle cells)
"O=C(NC[C@H](OS(=O)(=O)O)[C@@H](OS(=O)(=O)O)[C@H](OS(=O)(=O)O)[C@@H](COS(=O)(=O)O)OS(=O)(=O)O)c1ccc2cc(C(=O)NC[C@H](OS(=O)(=O)O)[C@@H](OS(=O)(=O)O)[C@H](OS(=O)(=O)O)[C@@H](COS(=O)(=O)O)OS(=O)(=O)O)ccc2c1 [Example 1, naphthalene-2,6-dicarboxylic acid bis-(2,3,4,5,6-penta-O-sulfo-D-glucit-1-ylamide) decasodium salt]",< 3.13,< 3.13,,0.6
"O=C(NC[C@H](OS(=O)(=O)O)[C@@H](OS(=O)(=O)O)[C@H](OS(=O)(=O)O)[C@@H](COS(=O)(=O)O)OS(=O)(=O)O)c1ccc(S(=O)(=O)c2ccc(C(=O)NC[C@H](OS(=O)(=O)O)[C@@H](OS(=O)(=O)O)[C@H](OS(=O)(=O)O)[C@@H](COS(=O)(=O)O)OS(=O)(=O)O)cc2)cc1 [Example 4, 4,4'-sulfonyl-dibenzoic acid bis-(2,3,4,5,6-penta-O-sulfo-D-glucit-1-ylamide) decasodium salt]",< 3.16,,< 3.16,0.3
"O=C(NC[C@H](OS(=O)(=O)O)[C@@H](OS(=O)(=O)O)[C@H](OS(=O)(=O)O)[C@@H](COS(=O)(=O)O)OS(=O)(=O)O)c1ccc(CCc2ccc(C(=O)NC[C@H](OS(=O)(=O)O)[C@@H](OS(=O)(=O)O)[C@H](OS(=O)(=O)O)[C@@H](COS(=O)(=O)O)OS(=O)(=O)O)cc2)cc1 [Example 10, 4,4'-ethylene-dibenzoic acid bis-(2,3,4,5,6-penta-O-sulfo-D-glucit-1-ylamide) decasodium salt]",< 3.15,,< 3.15,1.5
"O=C(Nc1ccc(OC[C@@H](OS(=O)(=O)O)[C@H](OS(=O)(=O)O)[C@@H](COS(=O)(=O)O)OS(=O)(=O)O)cc1)c1cccc(C(=O)Nc2ccc(OC[C@@H](OS(=O)(=O)O)[C@H](OS(=O)(=O)O)[C@@H](COS(=O)(=O)O)OS(=O)(=O)O)cc2)c1 [Example 12, N,N'-bis-[4-(2,3,4,5-tetra-O-sulfo-D-arabinit-1-yloxy)-phenyl]-isophthalamide octasodium salt]",< 3.10,,< 3.10,0.9
"O=C(NC[C@H](OS(=O)(=O)O)[C@@H](OS(=O)(=O)O)[C@H](OS(=O)(=O)O)[C@@H](COS(=O)(=O)O)OS(=O)(=O)O)c1ccc(Cc2ccc(C(=O)NC[C@H](OS(=O)(=O)O)[C@@H](OS(=O)(=O)O)[C@H](OS(=O)(=O)O)[C@@H](COS(=O)(=O)O)OS(=O)(=O)O)cc2)cc1 [Example 16, 4,4'-methylene-dibenzoic acid bis-(2,3,4,5,6-penta-O-sulfo-D-glucit-1-ylamide) decasodium salt]",< 3.14,,< 3.14,0.7
"O=C(NC[C@H](OS(=O)(=O)O)[C@@H](OS(=O)(=O)O)[C@H](OS(=O)(=O)O)[C@@H](COS(=O)(=O)O)OS(=O)(=O)O)Nc1ccc(NC(=O)c2ccc(C(=O)Nc3ccc(NC(=O)NC[C@H](OS(=O)(=O)O)[C@@H](OS(=O)(=O)O)[C@H](OS(=O)(=O)O)[C@@H](COS(=O)(=O)O)OS(=O)(=O)O)cc3)cc2)cc1 [Example 33, N,N'-bis-[4-[3-(2,3,4,5,6-penta-O-sulfo-D-glucit-1-yl)-ureido]-phenyl]-terephthalamide decasodium salt]",< 3.19,< 3.19,,0.8
"O=C(/C=C/C(=O)Nc1ccc(NC(=O)NC[C@H](OS(=O)(=O)O)[C@@H](OS(=O)(=O)O)[C@H](OS(=O)(=O)O)[C@@H](COS(=O)(=O)O)OS(=O)(=O)O)cc1)Nc1ccc(NC(=O)NC[C@H](OS(=O)(=O)O)[C@@H](OS(=O)(=O)O)[C@H](OS(=O)(=O)O)[C@@H](COS(=O)(=O)O)OS(=O)(=O)O)cc1 [Example 34, N,N'-bis-[4-[3-(2,3,4,5,6-penta-O-sulfo-D-glucit-1-yl)-ureido]-phenyl]-fumaramide decasodium salt]",< 3.18,< 3.18,,0.4
"CN(C[C@H](OS(=O)(=O)O)[C@@H](OS(=O)(=O)O)[C@H](OS(=O)(=O)O)[C@@H](COS(=O)(=O)O)OS(=O)(=O)O)C(=O)c1ccc2c(c1)C(=O)c1cc(C(=O)N(C)C[C@H](OS(=O)(=O)O)[C@@H](OS(=O)(=O)O)[C@H](OS(=O)(=O)O)[C@@H](COS(=O)(=O)O)OS(=O)(=O)O)ccc1-2 [Example 37, 9-oxo-9H-fluorene-2,7-dicarboxylic acid bis-[methyl-(2,3,4,5,6-penta-O-sulfo-D-glucit-1yl)-amide] decasodium salt]",< 3.15,,< 3.15,0.7
"O=C(Nc1ccc(OC[C@@H](OS(=O)(=O)O)[C@H](OS(=O)(=O)O)[C@H](OS(=O)(=O)O)[C@H](COS(=O)(=O)O)OS(=O)(=O)O)cc1)Nc1ccc(OC[C@@H](OS(=O)(=O)O)[C@H](OS(=O)(=O)O)[C@H](OS(=O)(=O)O)[C@H](COS(=O)(=O)O)OS(=O)(=O)O)cc1 [Example 65, 1,3-bis-[4-(2,3,4,5,6-penta-O-sulfo-D-galactit-6-yloxy)-phenyl]-urea decasodium salt]",< 3.14,,< 3.14,0.8

# More lines, main results first:
pIC50 (Factor Xa),pIC50 (thrombin; pH 8.4),pIC50 (thrombin; [1]),Structure (SMILES),Antiproliferative Activity ri (relative inhibitory activity compared with heparin) (rat smooth muscle cells)
< 3.14,,< 3.14,"O=C(NC[C@H](OS(=O)(=O)O)[C@@H](OS(=O)(=O)O)[C@H](OS(=O)(=O)O)[C@@H](COS(=O)(=O)O)OS(=O)(=O)O)c1ccc(/C=C\c2ccc(C(=O)NC[C@H](OS(=O)(=O)O)[C@@H](OS(=O)(=O)O)[C@H](OS(=O)(=O)O)[C@@H](COS(=O)(=O)O)OS(=O)(=O)O)cc2)cc1 [Example 3, (Z)-stilbene-4,4'-dicarboxylic acid bis-(2,3,4,5,6-penta-O-sulfo-D-glucit-1-ylamide) decasodium salt]",1.5
< 3.16,,< 3.16,"CC(/C=C/C=C(\C)C(=O)NC[C@H](OS(=O)(=O)O)[C@@H](OS(=O)(=O)O)[C@H](OS(=O)(=O)O)[C@@H](COS(=O)(=O)O)OS(=O)(=O)O)=C\C=C\C=C(C)\C=C\C=C(/C)C(=O)NC[C@H](OS(=O)(=O)O)[C@@H](OS(=O)(=O)O)[C@H](OS(=O)(=O)O)[C@@H](COS(=O)(=O)O)OS(=O)(=O)O [Example 6, (2E,4E,6E,8E,10E,12E,14E)-2,6,11,15-tetramethyl-hexadeca-2,4,6,8,10,12,14-heptaenedicarboxylic acid bis-(2,3,4,5,6-penta-O-sulfo-D-glucit-1-ylamide) decasodium salt]",1.5
< 3.15,,< 3.15,"O=S(=O)(O)OC[C@@H](OS(=O)(=O)O)[C@@H](OS(=O)(=O)O)[C@H](OS(=O)(=O)O)[C@H](CNS(=O)(=O)c1cccc2c(S(=O)(=O)NC[C@H](OS(=O)(=O)O)[C@@H](OS(=O)(=O)O)[C@H](OS(=O)(=O)O)[C@@H](COS(=O)(=O)O)OS(=O)(=O)O)cccc12)OS(=O)(=O)O [Example 11, naphthalene-1,5-disulfonic acid bis-(2,3,4,5,6-penta-O-sulfo-D-glucit-1-ylamide) decasodium salt]",1.0
< 3.11,,< 3.11,"O=C(NC[C@H](OS(=O)(=O)O)[C@@H](OS(=O)(=O)O)[C@H](OS(=O)(=O)O)[C@@H](COS(=O)(=O)O)OS(=O)(=O)O)c1cccc(C(=O)NC[C@H](OS(=O)(=O)O)[C@@H](OS(=O)(=O)O)[C@H](OS(=O)(=O)O)[C@@H](COS(=O)(=O)O)OS(=O)(=O)O)c1 [Example 14, N,N'-bis-(2,3,4,5,6-penta-O-sulfo-D-glucit-1-yl)-isophthalamide decasodium salt]",0.6
< 3.13,,< 3.13,"Cc1c(NC(=O)NC[C@H](OS(=O)(=O)O)[C@@H](OS(=O)(=O)O)[C@H](OS(=O)(=O)O)[C@@H](COS(=O)(=O)O)OS(=O)(=O)O)cccc1NC(=O)NC[C@H](OS(=O)(=O)O)[C@@H](OS(=O)(=O)O)[C@H](OS(=O)(=O)O)[C@@H](COS(=O)(=O)O)OS(=O)(=O)O [Example 26, 3,3'-bis-(2,3,4,5,6-penta-O-sulfo-D-glucit-1-yl)-1,1'-(toluene-2,6-diyl)-diurea decasodium salt]",1.5
< 3.21,,< 3.21,"O=C(/C=C\C(=O)Nc1cc(COc2ccc(-c3ccccc3)cc2)cc(NC(=O)/C=C\C(=O)NC[C@H](OS(=O)(=O)O)[C@@H](OS(=O)(=O)O)[C@H](OS(=O)(=O)O)[C@@H](COS(=O)(=O)O)OS(=O)(=O)O)c1)NC[C@H](OS(=O)(=O)O)[C@@H](OS(=O)(=O)O)[C@H](OS(=O)(=O)O)[C@@H](COS(=O)(=O)O)OS(=O)(=O)O [Example 58, (Z)-butenedioic acid (Z)-[3-biphenyl-4-yloxymethyl-5-[3-(2,3,4,5,6-penta-O-sulfo-D-glucit-1-ylcarbamoyl)-acryloylamino]-phenylamide]-(2,3,4,5,6-penta-O-sulfo-D-glucit-1-yl)-amide decasodium salt]",2.2
